Experiments:
[1] = test system: Candida albicans IFO 1270; assay: Growth inhibition of Candida albicans in Sabouraud's glucose broth (Test Example 1); assay type: cell-based; details: Candida albicans IFO 1270, Sabouraud's glucose broth
Method: To 9.8 mℓ of Sabouraud's glucose broth, 0.1 mℓ of cell suspension of Candida albicans IFO 1270 (1.0 x 10⁷ cells/mℓ) and 0.1 mℓ of test compound solution (1000 or 10 µg/mℓ) was added. The growth inhibition ratio (%) was determined. For comparison, cis-1-acetyl-4-[4-[[2-(2,4-dichrolophenyl)-2-(imidazol-1-ylmethyl)-1,3-dioxolan-4-yl]methoxy]phenyl]piperazine (Ketoconazole) was used as a reference compound (hereinafter referred to as compound A).

[2] = test system: Candida albicans IFO 1270; assay: Survival of mice intravenously inoculated with Candida albicans, oral treatment (Test Example 2); assay type: in vivo; details: male ddy mice, i.v. Candida albicans IFO 1270 (1 x 10⁸ cells/kg); 10 mg/kg orally once a day for three days; 10th day from inoculation
Method: Six-week-old male ddy mice were used as test animals (10 animals per control group; 5 animals per test group). Each animal was intravenously inoculated with Candida albicans IFO 1270 (1 x 10⁸ cells/kg) which has been subcultured on Sabouraud's glucose agar at 37 °C for 24 hours.
After the inoculation, each test compound was orally administered at a dosage of 10 mg/kg to the animal once a day for consecutive three days.
On the 10th day from the inoculation, the survival rate was monitored.

Compound	Growth Inhibition (%) ([1]; 0.1 µg/mℓ)	Growth Inhibition (%) ([1]; 10 µg/mℓ)	Rate of Survival (%) [2] [%]
C/C(=C\c1ccc(OC(F)(F)F)cc1)C(O)(Cn1cncn1)c1ccc(F)cc1F (racemic) [Compound No. 6, 2-(2,4-Difluorophenyl)-2-[1-methyl-2-(4-trifluoromethoxyphenyl)ethenyl]-1-triazolyl-2-ethanol]	63	86	100
C/C(=C\c1ccc(C(=O)NNC=O)cc1)C(O)(Cn1cncn1)c1ccc(F)cc1F (racemic) [compound 15]	3	55	60
C/C(=C\c1ccc(C(=O)N2CCOCC2)cc1)C(O)(Cn1cncn1)c1ccc(F)cc1F (racemic) [Compound No. 3]	0	76	40
C/C(=C\Sc1ccc(F)cc1)C(O)(Cn1cncn1)c1ccc(F)cc1 (racemic) [compound 30]	11	83	40
C/C(=C\c1ccc(CO)cc1)C(O)(Cn1cncn1)c1ccc(F)cc1F (racemic) [compound 4]	8	65	40
C/C(=C\c1ccc(-c2nc[nH]n2)cc1)C(O)(Cn1cncn1)c1ccc(F)cc1F (racemic) [compound 23]	8	67	–
C/C(=C\C=C\c1ccc(C(F)(F)F)cc1)C(O)(Cn1cncn1)c1ccc(F)cc1F (racemic) [compound 37]	50	78	100
C/C(=C\c1ccc(OCC(F)(F)C(F)F)cc1)C(O)(Cn1cncn1)c1ccc(F)cc1F (racemic) [compound 7]	60	86	100
CC(=Cn1cncn1)C(O)(Cn1cncn1)c1ccc(F)cc1 (centres unmarked) [Compound No. 14]	–	–	100
C/C(=C\c1ccccn1)C(O)(Cn1cncn1)c1ccc(F)cc1F (racemic) [compound 9]	72	84	20
CC(=O)N1CCN(c2ccc(OC[C@H]3CO[C@](Cn4ccnc4)(c4ccc(Cl)cc4Cl)O3)cc2)CC1 (relative stereo) [compound A, cis-1-acetyl-4-[4-[[2-(2,4-dichrolophenyl)-2-(imidazol-1-ylmethyl)-1,3-dioxolan-4-yl]methoxy]phenyl]piperazine, reference compound]	62	76	20
C/C(=C\C#Cc1ccc(F)cc1)C(O)(Cn1cncn1)c1ccc(F)cc1F (racemic) [compound 36]	71	78	100
C/C(=C\c1ccc(C#N)cc1)C(O)(Cn1cncn1)c1ccc(F)cc1F (racemic) [Compound No. 5, 2-(2,4-Difluorophenyl)-2-[1-methyl-2(4-cyanophenyl)ethenyl]-1-triazolyl-2-ethanol]	72	96	100
C/C(=C\c1ccc(SC(C)(C)C)cc1)C(O)(Cn1cncn1)c1ccc(F)cc1F (racemic) [compound 26]	48	67	–
C/C(=C\c1cccs1)C(O)(Cn1cncn1)c1ccc(F)cc1F (racemic) [compound 10]	13	62	40
